Results from ChEMBL document CHEMBL3885881, “DrugMatrix”.

Organism: Rattus norvegicus
Assay: DrugMatrix - Regimen: Daily Repeat
Format: toxicity, organism-based, Sprague-Dawley
Design: regimen Daily Repeat, gender Male, age 6-8 weeks
Details: in vivo, sc, 0 mg/kg, route mini-PUMP - SUBCUTANEOUS, dose level Control, vehicle 100 % SALINE; for ABSOLUTE BASOPHIL / ABSOLUTE EOSINOPHIL / ABSOLUTE LYMPHOCYTE / ABSOLUTE MONOCYTE / ABSOLUTE SEGMENTED NEUTROPHIL / BASOPHIL / EOSINOPHIL / ERYTHROCYTE COUNT / HEMATOCRIT / HEMOGLOBIN / LEUKOCYTE COUNT / LYMPHOCYTE / MEAN CORPUSCULAR HEMOGLOBIN / MEAN CORPUSCULAR HEMOGLOBIN CONCENTRATION / MEAN CORPUSCULAR VOLUME / MONOCYTE / NEUTROPHIL / NUCLEATED RED BLOOD CELLS / PLATELET COUNT: tissue Blood; for ALANINE AMINOTRANSFERASE / ALBUMIN / ALKALINE PHOSPHATASE / ASPARTATE AMINOTRANSFERASE / BLOOD UREA NITROGEN / CARBON DIOXIDE / CHLORIDE / CHOLESTEROL / CREATININE / GLUCOSE / LACTATE DEHYDROGENASE / LIPASE / PHOSPHORUS / POTASSIUM / SODIUM / TOTAL BILIRUBIN / TOTAL PROTEIN / URIC ACID: tissue Plasma

SMILES: C[C@]12CCC(=O)C=C1CC[C@@H]1[C@@H]2[C@@H](O)C[C@]2(C=O)[C@@H](C(=O)CO)CC[C@@H]12 [ALDOSTERONE]
- ABSOLUTE BASOPHIL (72 h, time 3 day): 0 CELLS/uL
- ABSOLUTE EOSINOPHIL (72 h, time 3 day): 77.17 CELLS/uL
- ABSOLUTE LYMPHOCYTE (72 h, time 3 day): 14293.83 CELLS/uL
- ABSOLUTE MONOCYTE (72 h, time 3 day): 354 CELLS/uL
- ABSOLUTE SEGMENTED NEUTROPHIL (72 h, time 3 day): 1658.33 CELLS/uL
- BASOPHIL (72 h, time 3 day): 0%
- EOSINOPHIL (72 h, time 3 day): 0.5%
- ERYTHROCYTE COUNT (72 h, time 3 day): 6.27 x10E6/uL
- HEMATOCRIT (72 h, time 3 day): 36.95%
- HEMOGLOBIN (72 h, time 3 day): 13.4 G/DL
- LEUKOCYTE COUNT (72 h, time 3 day): 16.38 x10E3/uL
- LYMPHOCYTE (72 h, time 3 day): 87.17%
- MEAN CORPUSCULAR HEMOGLOBIN (72 h, time 3 day): 21.42 pg
- MEAN CORPUSCULAR HEMOGLOBIN CONCENTRATION (72 h, time 3 day): 36.27 G/DL
- MEAN CORPUSCULAR VOLUME (72 h, time 3 day): 59.03 fL
- MONOCYTE (72 h, time 3 day): 2%
- NEUTROPHIL (72 h, time 3 day): 10.33%
- NUCLEATED RED BLOOD CELLS (72 h, time 3 day): 0 /100WBC
- PLATELET COUNT (72 h, time 3 day): 904.67 x10E3/uL
- ALANINE AMINOTRANSFERASE (72 h, time 3 day): 48.33 u/L
- ALBUMIN (72 h, time 3 day): 3.82 G/DL
- ALKALINE PHOSPHATASE (72 h, time 3 day): 282.33 u/L
- ASPARTATE AMINOTRANSFERASE (72 h, time 3 day): 86.83 u/L
- BLOOD UREA NITROGEN (72 h, time 3 day): 20.17 mg/dL
- CARBON DIOXIDE (72 h, time 3 day): 34.67 mmol/L
- CHLORIDE (72 h, time 3 day): 102 MEQ/L
- CHOLESTEROL (72 h, time 3 day): 71.5 mg/dL
- CREATININE (72 h, time 3 day): 0.2 mg/dL
- GLUCOSE (72 h, time 3 day): 136.83 mg/dL
- LACTATE DEHYDROGENASE (72 h, time 3 day): 159 u/L
- LIPASE (72 h, time 3 day): 9 u/L
- PHOSPHORUS (72 h, time 3 day): 10.12 mg/dL
- POTASSIUM (72 h, time 3 day): 5.92 MEQ/L
- SODIUM (72 h, time 3 day): 147.8 MEQ/L
- TOTAL BILIRUBIN (72 h, time 3 day): 0.2 mg/dL
- TOTAL PROTEIN (72 h, time 3 day): 6.05 G/DL
- URIC ACID (72 h, time 3 day): 1.4 mg/dL
- ABSOLUTE BASOPHIL (120 h, time 5 day): 0 CELLS/uL
- ABSOLUTE EOSINOPHIL (120 h, time 5 day): 0 CELLS/uL
- ABSOLUTE LYMPHOCYTE (120 h, time 5 day): 14257.33 CELLS/uL
- ABSOLUTE MONOCYTE (120 h, time 5 day): 326 CELLS/uL
- ABSOLUTE SEGMENTED NEUTROPHIL (120 h, time 5 day): 3216.67 CELLS/uL
- BASOPHIL (120 h, time 5 day): 0%
- EOSINOPHIL (120 h, time 5 day): 0%
- ERYTHROCYTE COUNT (120 h, time 5 day): 6.11 x10E6/uL
- HEMATOCRIT (120 h, time 5 day): 36.22%
- HEMOGLOBIN (120 h, time 5 day): 13.18 G/DL
- LEUKOCYTE COUNT (120 h, time 5 day): 17.8 x10E3/uL
- LYMPHOCYTE (120 h, time 5 day): 80.5%
- MEAN CORPUSCULAR HEMOGLOBIN (120 h, time 5 day): 21.62 pg
- MEAN CORPUSCULAR HEMOGLOBIN CONCENTRATION (120 h, time 5 day): 36.42 G/DL
- MEAN CORPUSCULAR VOLUME (120 h, time 5 day): 59.37 fL
- MONOCYTE (120 h, time 5 day): 1.83%
- NEUTROPHIL (120 h, time 5 day): 17.67%
- NUCLEATED RED BLOOD CELLS (120 h, time 5 day): 0 /100WBC
- PLATELET COUNT (120 h, time 5 day): 1311 x10E3/uL
- ALANINE AMINOTRANSFERASE (120 h, time 5 day): 47 u/L
- ALBUMIN (120 h, time 5 day): 3.83 G/DL
- ALKALINE PHOSPHATASE (120 h, time 5 day): 260.33 u/L
- ASPARTATE AMINOTRANSFERASE (120 h, time 5 day): 76.17 u/L
- BLOOD UREA NITROGEN (120 h, time 5 day): 14.67 mg/dL
- CARBON DIOXIDE (120 h, time 5 day): 31.33 mmol/L
- CHLORIDE (120 h, time 5 day): 101.17 MEQ/L
- CHOLESTEROL (120 h, time 5 day): 75 mg/dL
- CREATININE (120 h, time 5 day): 0.16 mg/dL
- GLUCOSE (120 h, time 5 day): 152.67 mg/dL
- LACTATE DEHYDROGENASE (120 h, time 5 day): 147.33 u/L
- LIPASE (120 h, time 5 day): 9.33 u/L
- PHOSPHORUS (120 h, time 5 day): 10.97 mg/dL
- POTASSIUM (120 h, time 5 day): 6 MEQ/L
- SODIUM (120 h, time 5 day): 145.52 MEQ/L
- TOTAL BILIRUBIN (120 h, time 5 day): 0.17 mg/dL
- TOTAL PROTEIN (120 h, time 5 day): 5.83 G/DL
- URIC ACID (120 h, time 5 day): 1.27 mg/dL
- ABSOLUTE BASOPHIL ([…], time 14 day): 0 CELLS/uL
- ABSOLUTE EOSINOPHIL ([…], time 14 day): 64.5 CELLS/uL
- ABSOLUTE LYMPHOCYTE ([…], time 14 day): 12507.83 CELLS/uL
- ABSOLUTE MONOCYTE ([…], time 14 day): 380.33 CELLS/uL
- ABSOLUTE SEGMENTED NEUTROPHIL ([…], time 14 day): 2414 CELLS/uL
- BASOPHIL ([…], time 14 day): 0%
- EOSINOPHIL ([…], time 14 day): 0.5%
- ERYTHROCYTE COUNT ([…], time 14 day): 6.1 x10E6/uL
- HEMATOCRIT ([…], time 14 day): 35.4%
- HEMOGLOBIN ([…], time 14 day): 12.88 G/DL
- LEUKOCYTE COUNT ([…], time 14 day): 15.37 x10E3/uL
- LYMPHOCYTE ([…], time 14 day): 80.83%
- MEAN CORPUSCULAR HEMOGLOBIN ([…], time 14 day): 21.18 pg
- MEAN CORPUSCULAR HEMOGLOBIN CONCENTRATION ([…], time 14 day): 36.43 G/DL
- MEAN CORPUSCULAR VOLUME ([…], time 14 day): 58.17 fL
- MONOCYTE ([…], time 14 day): 2.17%
- NEUTROPHIL ([…], time 14 day): 16.5%
- NUCLEATED RED BLOOD CELLS ([…], time 14 day): 0.17 /100WBC
- PLATELET COUNT ([…], time 14 day): 1016 x10E3/uL
- ALANINE AMINOTRANSFERASE ([…], time 14 day): 53.33 u/L
- ALBUMIN ([…], time 14 day): 3.93 G/DL
- ALKALINE PHOSPHATASE ([…], time 14 day): 319.83 u/L
- ASPARTATE AMINOTRANSFERASE ([…], time 14 day): 84 u/L
- BLOOD UREA NITROGEN ([…], time 14 day): 15.5 mg/dL
- CARBON DIOXIDE ([…], time 14 day): 34 mmol/L
- CHLORIDE ([…], time 14 day): 101.83 MEQ/L
- CHOLESTEROL ([…], time 14 day): 57 mg/dL
- CREATININE ([…], time 14 day): 0.21 mg/dL
- GLUCOSE ([…], time 14 day): 182.33 mg/dL
- LACTATE DEHYDROGENASE ([…], time 14 day): 104.67 u/L
- LIPASE ([…], time 14 day): 9.17 u/L
- PHOSPHORUS ([…], time 14 day): 11.12 mg/dL
- POTASSIUM ([…], time 14 day): 5.81 MEQ/L
- SODIUM ([…], time 14 day): 144.85 MEQ/L
- TOTAL BILIRUBIN ([…], time 14 day): 0.18 mg/dL
- TOTAL PROTEIN ([…], time 14 day): 5.92 G/DL
- URIC ACID ([…], time 14 day): 1.38 mg/dL
